Source: ChEMBL document CHEMBL1201862, “PubChem BioAssay data set” (2004)
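Test compounds were applied to cells in 96-well plates for 48 hours at 5 doses. At the GI50, growth is halved.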 Activity calls are given as the source filed them. Cut-off read from the data, not from the text of the source: active = GI50 up to about 1.1 µM and inactive = higher.

What was measured:
Assay in all cases: DTP human tumour cell line panel, 48 h
786-0 = system: 786-0
A498 = system: A498
A549 = system: A549
ACHN = system: ACHN
CAKI-1 = system: CAKI-1
CCRF-CEM = system: CCRF-CEM
COLO 205 = system: COLO 205
DU-145 = system: DU-145
EKVX = system: EKVX
HCC 2998 = system: HCC 2998
HCT-116 = system: HCT-116
HCT-15 = system: HCT-15
HL-60 = system: HL-60
HOP-92 = system: HOP-92
HT-29 = system: HT-29
Hs-578T = system: Hs-578T
IGROV-1 = system: IGROV-1
K562 = system: K562
KM12 = system: KM12
LOX IMVI = system: LOX IMVI
M14 = system: M14
MCF7 = system: MCF7
MDA-MB-231 = system: MDA-MB-231
MDA-MB-435 = system: MDA-MB-435
MDA-N = system: MDA-N
MOLT-4 = system: MOLT-4
Malme-3M = system: Malme-3M
NCI-H226 = system: NCI-H226
NCI-H23 = system: NCI-H23
NCI-H460 = system: NCI-H460
NCI/ADR-RES = system: NCI/ADR-RES
OVCAR-3 = system: OVCAR-3
OVCAR-4 = system: OVCAR-4
OVCAR-5 = system: OVCAR-5
OVCAR-8 = system: OVCAR-8
PC-3 = system: PC-3
RPMI-8226 = system: RPMI-8226
RXF 393 = system: RXF 393
SF-268 = system: SF-268
SF-295 = system: SF-295
SF-539 = system: SF-539
SK-MEL-28 = system: SK-MEL-28
SK-MEL-2 = system: SK-MEL-2
SK-MEL-5 = system: SK-MEL-5
SK-OV-3 = system: SK-OV-3
SN12C = system: SN12C
SNB-19 = system: SNB-19
SR = system: SR
SW-620 = system: SW-620
T47D = system: T47D
TK-10 = system: TK-10
U-251 = system: U-251
UACC-257 = system: UACC-257
UACC-62 = system: UACC-62
BT-549 = system: BT-549
HOP-62 = system: HOP-62
NCI-H522 = system: NCI-H522
SNB-75 = system: SNB-75
UO-31 = system: UO-31

`CC1=NN(c2ccccc2)C(=O)/C1=C/c1ccc(O)cc1` was tested, and the GI50 (786-0) was > 100 µM (inactive), the GI50 (A498) was > 100 µM (inactive) and the GI50 (A549) was > 100 µM (inactive). The GI50 (ACHN) was > 100 µM (inactive), the GI50 (CAKI-1) was > 100 µM (inactive) and the GI50 (CCRF-CEM) was > 100 µM (inactive). For the same compound, the GI50 (COLO 205) was > 100 µM (inactive), the GI50 (DU-145) was > 100 µM (inactive) and the GI50 (EKVX) was > 100 µM (inactive). The GI50 (HCC 2998) was > 100 µM (inactive), the GI50 (HCT-116) was > 100 µM (inactive) and the GI50 (HCT-15) was > 100 µM. The GI50 (HL-60) was > 100 µM (inactive), the GI50 (HOP-92) was > 100 µM (inactive) and the GI50 (HT-29) was > 100 µM (inactive). For the same compound, the GI50 (Hs-578T) was > 100 µM (inactive), the GI50 (IGROV-1) was > 100 µM (inactive) and the GI50 (K562) was > 100 µM (inactive). For the same compound, the GI50 (KM12) was > 100 µM (inactive), the GI50 (LOX IMVI) was > 100 µM (inactive) and the GI50 (M14) was > 100 µM (inactive). The GI50 (MCF7) was > 100 µM (inactive), the GI50 (MDA-MB-231) was > 100 µM (inactive) and the GI50 (MDA-MB-435) was > 100 µM (inactive). For the same compound, the GI50 (MDA-N) was > 100 µM (inactive), the GI50 (MOLT-4) was > 100 µM (inactive) and the GI50 (Malme-3M) was > 100 µM (inactive). The GI50 (NCI-H226) was > 100 µM (inactive), the GI50 (NCI-H23) was > 100 µM (inactive) and the GI50 (NCI-H460) was > 100 µM (inactive). For the same compound, the GI50 (NCI/ADR-RES) was > 100 µM (inactive), the GI50 (OVCAR-3) was > 100 µM (inactive) and the GI50 (OVCAR-4) was > 100 µM (inactive). For the same compound, the GI50 (OVCAR-5) was > 100 µM (inactive), the GI50 (OVCAR-8) was > 100 µM (inactive) and the GI50 (PC-3) was > 100 µM (inactive). For the same compound, the GI50 (RPMI-8226) was 61.8 µM (inactive), the GI50 (RXF 393) was > 100 µM (inactive) and the GI50 (SF-268) was > 100 µM (inactive). For the same compound, the GI50 (SF-295) was > 100 µM (inactive), the GI50 (SF-539) was > 100 µM (inactive) and the GI50 (SK-MEL-28) was > 100 µM (inactive). The GI50 (SK-MEL-2) was > 100 µM (inactive), the GI50 (SK-MEL-5) was > 100 µM (inactive) and the GI50 (SK-OV-3) was > 100 µM (inactive). The GI50 (SN12C) was > 100 µM (inactive), the GI50 (SNB-19) was > 100 µM (inactive) and the GI50 (SR) was 84.3 µM (inactive). The GI50 (SW-620) was > 100 µM (inactive), the GI50 (T47D) was > 100 µM (inactive) and the GI50 (TK-10) was > 100 µM (inactive). For the same compound, the GI50 (U-251) was > 100 µM (inactive), the GI50 (UACC-257) was > 100 µM (inactive) and the GI50 (UACC-62) was > 100 µM (inactive).
`O=C(Cn1cc(-c2ccccc2)nn1)NC1CCCCC1` was tested, and the GI50 (786-0) was > 100 µM (inactive), the GI50 (A549) was > 100 µM (inactive) and the GI50 (ACHN) was > 100 µM (inactive). The GI50 (BT-549) was > 100 µM (inactive), the GI50 (CAKI-1) was > 100 µM (inactive) and the GI50 (CCRF-CEM) was > 100 µM (inactive). For the same compound, the GI50 (COLO 205) was > 100 µM (inactive), the GI50 (DU-145) was > 100 µM (inactive) and the GI50 (EKVX) was > 100 µM (inactive). For the same compound, the GI50 (HCC 2998) was 54.5 µM (inactive), the GI50 (HCT-116) was > 100 µM (inactive) and the GI50 (HCT-15) was > 100 µM. For the same compound, the GI50 (HL-60) was > 100 µM (inactive), the GI50 (HOP-62) was > 100 µM (inactive) and the GI50 (HOP-92) was > 100 µM (inactive). The GI50 (HT-29) was > 100 µM (inactive), the GI50 (IGROV-1) was > 100 µM (inactive) and the GI50 (K562) was > 100 µM (inactive). For the same compound, the GI50 (KM12) was > 100 µM (inactive), the GI50 (LOX IMVI) was > 100 µM (inactive) and the GI50 (M14) was > 100 µM (inactive). For the same compound, the GI50 (MCF7) was > 100 µM (inactive), the GI50 (MDA-MB-231) was > 100 µM (inactive) and the GI50 (MDA-MB-435) was > 100 µM (inactive). For the same compound, the GI50 (MOLT-4) was > 100 µM (inactive), the GI50 (Malme-3M) was > 100 µM (inactive) and the GI50 (NCI-H226) was > 100 µM (inactive). The GI50 (NCI-H23) was > 100 µM (inactive), the GI50 (NCI-H460) was > 100 µM (inactive) and the GI50 (NCI-H522) was > 100 µM (inactive). For the same compound, the GI50 (NCI/ADR-RES) was > 100 µM (inactive), the GI50 (OVCAR-4) was > 100 µM (inactive) and the GI50 (OVCAR-5) was > 100 µM (inactive). For the same compound, the GI50 (OVCAR-8) was > 100 µM (inactive), the GI50 (PC-3) was > 100 µM (inactive) and the GI50 (RPMI-8226) was > 100 µM (inactive). The GI50 (SF-268) was > 100 µM (inactive), the GI50 (SF-295) was > 100 µM (inactive) and the GI50 (SF-539) was > 100 µM (inactive). For the same compound, the GI50 (SK-MEL-28) was > 100 µM (inactive), the GI50 (SK-MEL-2) was > 100 µM (inactive) and the GI50 (SK-MEL-5) was > 100 µM (inactive). For the same compound, the GI50 (SN12C) was > 100 µM (inactive), the GI50 (SNB-19) was > 100 µM (inactive) and the GI50 (SNB-75) was > 100 µM (inactive). The GI50 (SR) was > 100 µM (inactive), the GI50 (SW-620) was > 100 µM (inactive) and the GI50 (TK-10) was > 100 µM (inactive). For the same compound, the GI50 (U-251) was > 100 µM (inactive) and the GI50 (UACC-257) was > 100 µM (inactive).
`N#Cc1nc(C2CCC2)oc1N` was tested, and the GI50 (786-0) was > 100 µM (inactive), the GI50 (A498) was > 100 µM (inactive) and the GI50 (A549) was > 100 µM (inactive). The GI50 (ACHN) was > 100 µM (inactive), the GI50 (CAKI-1) was > 100 µM (inactive) and the GI50 (CCRF-CEM) was 22.8 µM (inactive). For the same compound, the GI50 (COLO 205) was > 100 µM (inactive), the GI50 (DU-145) was > 100 µM (inactive) and the GI50 (EKVX) was > 100 µM (inactive). The GI50 (HCC 2998) was > 100 µM (inactive), the GI50 (HCT-116) was > 100 µM (inactive) and the GI50 (HCT-15) was > 100 µM. The GI50 (HL-60) was 84.9 µM (inactive), the GI50 (HOP-62) was > 100 µM (inactive) and the GI50 (HOP-92) was > 100 µM (inactive). The GI50 (HT-29) was > 100 µM (inactive), the GI50 (Hs-578T) was > 100 µM (inactive) and the GI50 (IGROV-1) was > 100 µM (inactive). The GI50 (K562) was > 100 µM (inactive), the GI50 (KM12) was > 100 µM (inactive) and the GI50 (LOX IMVI) was > 100 µM (inactive). The GI50 (M14) was > 100 µM (inactive), the GI50 (MCF7) was > 100 µM (inactive) and the GI50 (MDA-MB-231) was > 100 µM (inactive). The GI50 (MDA-MB-435) was > 100 µM (inactive), the GI50 (MDA-N) was > 100 µM (inactive) and the GI50 (MOLT-4) was > 100 µM (inactive). The GI50 (Malme-3M) was > 100 µM (inactive), the GI50 (NCI-H226) was > 100 µM (inactive) and the GI50 (NCI-H23) was > 100 µM (inactive). The GI50 (NCI-H460) was > 100 µM (inactive), the GI50 (NCI-H522) was > 100 µM (inactive) and the GI50 (NCI/ADR-RES) was > 100 µM (inactive). The GI50 (OVCAR-3) was > 100 µM (inactive), the GI50 (OVCAR-4) was > 100 µM (inactive) and the GI50 (OVCAR-5) was > 100 µM (inactive). The GI50 (OVCAR-8) was > 100 µM (inactive), the GI50 (PC-3) was > 100 µM (inactive) and the GI50 (RPMI-8226) was > 100 µM (inactive). The GI50 (RXF 393) was > 100 µM (inactive), the GI50 (SF-268) was > 100 µM (inactive) and the GI50 (SF-295) was > 100 µM (inactive). For the same compound, the GI50 (SF-539) was > 100 µM (inactive), the GI50 (SK-MEL-28) was > 100 µM (inactive) and the GI50 (SK-MEL-2) was > 100 µM (inactive). The GI50 (SK-MEL-5) was > 100 µM (inactive), the GI50 (SK-OV-3) was > 100 µM (inactive) and the GI50 (SN12C) was > 100 µM (inactive). For the same compound, the GI50 (SNB-19) was > 100 µM (inactive), the GI50 (SNB-75) was > 100 µM (inactive) and the GI50 (SR) was > 100 µM (inactive). For the same compound, the GI50 (SW-620) was > 100 µM (inactive), the GI50 (T47D) was > 100 µM (inactive) and the GI50 (TK-10) was > 100 µM (inactive). The GI50 (U-251) was > 100 µM (inactive), the GI50 (UACC-257) was > 100 µM (inactive) and the GI50 (UACC-62) was > 100 µM (inactive). The GI50 (UO-31) was > 100 µM (inactive).
